Tests used:
[1] = Solubility and osmotic pressure of the active compound; type: physicochemical
[2] = test system: male and female subjects between the ages of 65 and 84 years, baseline IGF-1 <150 ng/ml; experiment: Clinical study, first leg (immediate release dosage forms): IGF-1, IGFBP-3, body composition; type: in vivo, human
Procedure: (§1) This clinical study was performed in male and female subjects between the ages of 65 and 84 years inclusive, and whose baseline IGF-1 levels were <150 ng/ml.
(§2) The study was a double blind, parallel group, placebo-controlled study.
In the first leg of the study, the safety and efficacy of 2-amino-N-[2-(3a-(R)-benzyl-2-methyl-3-oxo-2,3,3a,4,6,7-hexahydro-pyrazolo[4,3-c]pyridin-5-yl)-1-(R)-benzyloxymethyl-2-oxo-ethyl]-isobutyramide L-tartrate was studied in 4 groups of approximately 24 subjects at doses of 0 mg (placebo), 1 mg tid, 3 mg tid and 3 mg am and 6 mg pm. (All dosage forms in this part of the study were immediate release dosage forms.)
(§3) Return visits were scheduled at 1, 2, and 4 weeks after baseline. A blood sample for 2-amino-N-[2-(3a-(R)-benzyl-2-methyl-3-oxo-2,3,3a,4,6,7-hexahydro-pyrazolo[4,3-c]pyridin-5-yl)-1-(R)-benzyloxymethyl-2-oxo-ethyl]-isobutyramide L-tartrate and IGF-1 levels was obtained at each visit. The baseline and all subsequent follow-up visits were performed at the same time of day (between approximately 8-11 am).
(§4) A follow-up evaluation was made at 1, 2, and 4 weeks. Vital signs were obtained and the skin of the face, trunk and upper extremities was inspected. A blood sample was obtained for measurement of GH and IGF-1, and for measurement of plasma concentrations of 2-amino-N-[2-(3a-(R)-benzyl-2-methyl-3-oxo-2,3,3a,4,6,7-hexahydro-pyrazolo[4,3-c]pyridin-5-yl)-1-(R)-benzyloxymethyl-2-oxo-ethyl]-isobutyramide L-tartrate.
(§5) The primary efficacy endpoint was the percentage change from baseline in IGF-1. Secondary outcomes included insulin-like growth factor binding protein 3 (IGIFBP-3), cholesterol subfractions, and percent changes in total adipose and total lean tissue. Changes in each of the secondary efficacy measures over time were examined systematically either graphically or in tabular form and summarized using appropriate descriptive statistics as is well known in the art.

[3] = test system: male and female subjects between the ages of 65 and 84 years, baseline IGF-1 <150 ng/ml; experiment: Clinical study, extension study (CR, CR+IR, daily or every third day): IGF-I, GH peaks, body composition; type: in vivo, human
Procedure: as §1, §2
In addition, an extension study was conducted to evaluate the relationship between peak GH concentrations or IGF-I versus surrogate responses such as lipid concentrations and body composition. A controlled release (CR) formulation was also evaluated, either alone or combined with an immediate release (IR) formulation (24-30 patients per group). [16mg (10 CR, 6 IR) h.s.( h.s. means at bedtime); 16 mg (10 CR, 6 IR) h.s. every third day; 16 mg CR h.s.; and placebo.] The formulations are set forth below.
In the extension study, 2-amino-N-[2-(3a-(R)-benzyl-2-methyl-3-oxo-2,3,3a,4,6,7-hexahydro-pyrazolo[4,3-c]pyridin-5-yl)-1-(R)-benzyloxymethyl-2-oxo-ethyl]-isobutyramide L-tartrate was supplied as 10 mg or 3 mg controlled release tablets and 3 mg immediate release tablets, with matching placebo tablets. Study active compound was supplied in blisterpaks, with five tablets to be taken at time of each dosing. Subjects were instructed to take the tablets with one glass of water at bedtime.
as §3
In addition to this schedule, subjects at selected sites in the extension study were studied during two overnight admissions on the first night of dosing and again on day 28 of dosing. Growth hormone secretion and pharmacokinetic sampling was carried out.
as §4
In addition, subjects at selected study centers were admitted to an overnight unit on day 28 of dosing. Growth hormone secretion profile, pharmacokinetics, and vital sign determination were carried out.
as §5

[4] = two groups receiving IR formulation

CN1N=C2CCN(C(=O)[C@@H](COCc3ccccc3)NC(=O)C(C)(C)N)C[C@@]2(Cc2ccccc2)C1=O.O=C(O)C(O)C(O)C(=O)O [2-amino-N-[2-(3a-(R)-benzyl-2-methyl-3-oxo-2,3,3a,4,6,7-hexahydro-pyrazolo[4,3-c]pyridin-5-yl)-1-(R)-benzyloxymethyl-2-oxo-ethyl]-isobutyramide L-tartrate]
osmotic pressure [1]: about 4 atmospheres | pH dependence of solubility ([1]; this GHSEC is a base): generally higher at acidic pH | solubility ([1]; water): > 150 mg/mL | IGF-1 dose relation ([2]; 0 mg, 1 mg tid, 3 mg tid, 3 mg am and 6 mg pm): dose related increase | increase in IGF-1 ([2]; both groups administered 9 mg daily (3 mg tid; 3 mg am and 6 mg pm), immediate release): approximately 35% | IGFBP3 ([2]; first leg): increased | changes in body composition ([2]; first leg, small changes): decreased adipose tissue and increased apparent whole body lean mass | attenuation of GH peaks ([3]; Q 3 day group compared with daily group): less attenuation | average GH peaks ([3]; group receiving CR alone, after 4 weeks): < 2 ng/mL | average GH peaks ([3]; group receiving CR alone, at baseline (first night of dosing)): less than 4 ng/ml | average GH peaks ([3]; groups receiving 6 mg IR (with 10 mg CR), at baseline): ≥ 15 ng/mL | average GH peaks ([3]; groups receiving 6 mg IR (with 10 mg CR), by 4 weeks): 4 to 6 ng/mL | GH peak height, Q 3 day group greater than QD group ([3]; on average): 1.52 ng/mL | average rise of IGF-I ([3]; remaining group, apparently 16 mg (10 CR, 6 IR) h.s. every third day): approximately 10% | IGF-I ([3]; the 2 groups dosed daily (16 mg CR h.s., 16 mg (10 CR, 6 IR) h.s.)): increases | adipose tissue [3, 4]: corresponding reductions | increases in lean tissue [3, 4]: 0.5-0.6%
